Measured values from article PMC9226319, “Peripherally restricted transthyretin-based delivery system for probes and therapeutics avoiding opioid-related side effects” (Nature Communications, 2022).
Several values for one entry are separate records, joined by “and”; a condition that tells them apart may be missing. Equal values may be shown once. Read-outs that look alike come from different tables or passages of the source.

Experiments:
[1] = target: T1, kappa opioid receptor (rat) (Rattus norvegicus, UniProt P34975); experiment: Rat kappa-opioid receptor (agonist radioligand [3H] U 69593) binding assay; settings: for % Inhibition of Control Specific Binding: kappa-opioid receptor binding, replicates 1st/2nd
T1 construct: Eurofins Cerep (France)
T1 sequence (P34975 whole entry): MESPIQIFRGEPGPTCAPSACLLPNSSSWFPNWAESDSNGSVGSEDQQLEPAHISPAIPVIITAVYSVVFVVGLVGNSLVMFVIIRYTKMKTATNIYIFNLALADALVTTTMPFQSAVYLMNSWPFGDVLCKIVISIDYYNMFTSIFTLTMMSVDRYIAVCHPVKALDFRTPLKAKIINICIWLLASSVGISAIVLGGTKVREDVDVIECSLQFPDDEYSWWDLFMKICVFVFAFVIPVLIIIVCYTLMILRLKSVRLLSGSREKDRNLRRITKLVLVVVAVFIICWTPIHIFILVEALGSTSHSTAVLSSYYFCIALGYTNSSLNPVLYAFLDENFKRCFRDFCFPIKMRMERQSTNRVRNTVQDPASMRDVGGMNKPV

male Sprague-Dawley rats [2] = experiment: Gastrointestinal (GI) transit (charcoal meal) assays; format: in vivo, rat; settings: rat, in vivo
TTR in human serum = TTR in human serum (Homo sapiens, UniProt P02766); experiment: TTR serum fluorescent probe exclusion (FPE) selectivity assay; format: binding; settings: ligand 10 µM; for %FPE probe fluorescence: human serum, replicates
purified human TTR = purified human TTR (Homo sapiens, UniProt P02766); experiment: Fluorescence polarization (FP) binding assay, ligands to TTR in buffer
male Sprague-Dawley rats [3] = settings: rat, in vivo
[4] = target: human mu-opioid receptors (Homo sapiens, UniProt P35372); experiment: biochemical; format: binding; settings: binding affinity to mu-opioid receptor (Ki)
Sequence of human mu-opioid receptors (P35372 whole entry): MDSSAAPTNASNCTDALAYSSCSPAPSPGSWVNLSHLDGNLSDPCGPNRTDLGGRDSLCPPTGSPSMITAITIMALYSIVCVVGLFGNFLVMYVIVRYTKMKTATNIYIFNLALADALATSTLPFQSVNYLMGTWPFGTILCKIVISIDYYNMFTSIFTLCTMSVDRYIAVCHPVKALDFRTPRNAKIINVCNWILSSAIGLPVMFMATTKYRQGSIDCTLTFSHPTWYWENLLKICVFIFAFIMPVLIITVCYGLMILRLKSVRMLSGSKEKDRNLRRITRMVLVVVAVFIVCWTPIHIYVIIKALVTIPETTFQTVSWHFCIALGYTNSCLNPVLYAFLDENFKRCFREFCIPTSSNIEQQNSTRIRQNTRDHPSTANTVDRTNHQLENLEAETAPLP

[5] = target: T2, delta-opioid receptor (human) (Homo sapiens, UniProt P41143); experiment: Human delta-opioid receptor (agonist radioligand [3H]-DADLE) binding assay; settings: for % Inhibition of Control Specific Binding: delta-opioid receptor binding, replicates 1st/2nd
T2 construct: Eurofins Cerep (France)
T2 sequence (P41143 whole entry): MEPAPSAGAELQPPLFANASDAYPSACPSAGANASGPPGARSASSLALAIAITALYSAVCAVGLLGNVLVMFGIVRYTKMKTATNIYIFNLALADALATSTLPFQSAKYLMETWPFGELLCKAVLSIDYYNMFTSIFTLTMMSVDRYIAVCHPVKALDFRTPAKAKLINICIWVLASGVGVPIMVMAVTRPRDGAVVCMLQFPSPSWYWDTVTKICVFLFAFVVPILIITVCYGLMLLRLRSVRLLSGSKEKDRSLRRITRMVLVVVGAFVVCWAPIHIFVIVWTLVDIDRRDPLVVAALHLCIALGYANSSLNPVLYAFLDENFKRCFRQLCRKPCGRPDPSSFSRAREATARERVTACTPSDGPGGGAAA

in vivo [6] = settings: male, Sprague Dawley, rat, sc
in vivo [7] = settings: male, Sprague Dawley, rat, sc; remark: listed apart in the source
[8] = for Concentration: subcutaneous 15.9 μmole/kg, individual animals
holo-RBP-TTR interaction = holo-RBP-TTR interaction (Homo sapiens, UniProt P02766); experiment: Effect on holo-RBP-TTR interaction in human serum (cross-linking, Western blot); settings: human serum, quantified from gel image, replicates (Supp Fig.14b)

## COc1ccc2c3c1O[C@H]1[C@@H](OCc4cn(CCNCCCCCCOc5cc(OCCCc6c(C)n[nH]c6C)cc(C(=O)O)c5)nn4)CC[C@@]4(O)[C@@H](C2)N(C)CC[C@]314 [AG10-L2-Oxy]
[1]; [3H] U 69593 displacement, read-out: binding affinity to kappa-opioid receptor (Ki)
  Ki: 120 nM
[1]; 1.0E-06 M
  % Inhibition of Control Specific Binding: 78.6% and 74.5%
[1]; 1.0E-07 M
  % Inhibition of Control Specific Binding: 32.2% and 33.7%
[1]; 1.0E-08 M
  % Inhibition of Control Specific Binding: 1.0% and 5.5%
[1]; 1.0E-09 M
  % Inhibition of Control Specific Binding: -3.9% and 9.9%
[1]; 2.0E-06 M
  % Inhibition of Control Specific Binding: 85.0% and 84.1%
Male Sprague-Dawley rats [2]
  GI transit (% of vehicle): 9.5 ± 2.8%
  GI transit as % of vehicle group: 9.19% and 12.07% and 6.37% and 7.14% and 12.52%
Male Sprague-Dawley rats [2]; sc
  GI transit (% of vehicle): 89.5 ± 3.0%
  GI transit as % of vehicle group: 86.23% and 92.53% and 87.21% and 92.83% and 88.77%
TTR in human serum; FPE probe 3.6 µM, 3 h reading relative to probe alone, text mean ± s.d., table replicates
  % TTR occupancy in human serum: 66.15% and 66.78% and 69.04% and 66.00%
TTR in human serum; time 0.000 h
  %FPE probe fluorescence: 0.000%
TTR in human serum; time 0.083 h
  %FPE probe fluorescence: 0.549% and 0.762% and -1.844% and -1.645%
TTR in human serum; time 0.250 h
  %FPE probe fluorescence: 0.706% and 1.255% and -0.116% and -0.642%
TTR in human serum; time 0.500 h
  %FPE probe fluorescence: 2.826% and 3.272% and 3.466% and 3.115%
TTR in human serum; time 1.000 h
  %FPE probe fluorescence: 4.537% and 7.078% and 8.406% and 7.892%
TTR in human serum; time 1.250 h
  %FPE probe fluorescence: 9.016% and 10.868% and 10.718% and 11.974%
TTR in human serum; time 1.500 h
  %FPE probe fluorescence: 11.997% and 15.126% and 11.024% and 13.206%
TTR in human serum; time 1.750 h
  %FPE probe fluorescence: 15.076% and 17.659% and 14.693% and 18.815%
TTR in human serum; time 2.000 h
  %FPE probe fluorescence: 19.358% and 21.045% and 18.427% and 21.877%
TTR in human serum; time 2.250 h
  %FPE probe fluorescence: 25.163% and 23.487% and 22.045% and 24.539%
TTR in human serum; time 2.500 h
  %FPE probe fluorescence: 25.806% and 27.529% and 26.249% and 27.302%
TTR in human serum; time 2.750 h
  %FPE probe fluorescence: 30.929% and 30.377% and 27.371% and 30.854%
TTR in human serum; time 3.000 h
  %FPE probe fluorescence: 33.853% and 33.219% and 30.957% and 33.996%
TTR in human serum; time 3.500 h
  %FPE probe fluorescence: 39.372% and 39.356% and 37.472% and 40.606%
TTR in human serum; time 3.750 h
  %FPE probe fluorescence: 41.871% and 41.320% and 39.536% and 41.800%
TTR in human serum; time 4.000 h
  %FPE probe fluorescence: 43.406% and 44.388% and 42.775% and 45.047%
TTR in human serum; time 4.250 h
  %FPE probe fluorescence: 46.096% and 46.093% and 44.165% and 46.692%
TTR in human serum; time 4.500 h
  %FPE probe fluorescence: 48.403% and 48.011% and 46.251% and 48.352%
TTR in human serum; time 4.750 h
  %FPE probe fluorescence: 49.977% and 52.633% and 49.006% and 51.062%
TTR in human serum; time 5.000 h
  %FPE probe fluorescence: 52.730% and 52.156% and 49.883% and 52.401%
TTR in human serum; time 5.250 h
  %FPE probe fluorescence: 54.499% and 55.931% and 51.647% and 54.573%
TTR in human serum; time 5.500 h
  %FPE probe fluorescence: 56.002% and 55.963% and 54.625% and 55.846%
TTR in human serum; time 5.750 h
  %FPE probe fluorescence: 57.400% and 57.044% and 54.205% and 59.081%
TTR in human serum; time 6.000 h
  %FPE probe fluorescence: 57.353% and 57.260% and 55.092% and 59.796%
Purified human TTR; log [nM] inhibitor 0.990
  % Fluorescence polarization (mean): 100.000%
Purified human TTR; log [nM] inhibitor 1.291
  % Fluorescence polarization (mean): 102.820%
Purified human TTR; log [nM] inhibitor 1.592
  % Fluorescence polarization (mean): 102.360%
Purified human TTR; log [nM] inhibitor 1.893
  % Fluorescence polarization (mean): 99.420%
Purified human TTR; log [nM] inhibitor 2.194
  % Fluorescence polarization (mean): 100.060%
Purified human TTR; log [nM] inhibitor 2.495
  % Fluorescence polarization (mean): 94.250%
Purified human TTR; log [nM] inhibitor 2.796
  % Fluorescence polarization (mean): 77.990%
Purified human TTR; log [nM] inhibitor 3.097
  % Fluorescence polarization (mean): 63.730%
Purified human TTR; log [nM] inhibitor 3.398
  % Fluorescence polarization (mean): 48.160%
Purified human TTR; log [nM] inhibitor 3.699
  % Fluorescence polarization (mean): 35.010%
Purified human TTR; log [nM] inhibitor 4.000
  % Fluorescence polarization (mean): 21.890%
Purified human TTR; log [nM] inhibitor […]
  % Fluorescence polarization (mean): 0.000%
Male Sprague-Dawley rats [3]
  hot plate latency: 54.2 ± 4.8 s
Male Sprague-Dawley rats [3]; sc
  hot plate latency: 9.5 ± 0.8 s
[4]
  Ki: 13 nM
[5]; [3H]-DADLE displacement, read-out: binding affinity to delta-opioid receptor (Ki)
  Ki: 410 nM
[5]; 1.0E-06 M
  % Inhibition of Control Specific Binding: 50.5% and 49.9%
[5]; 1.0E-07 M
  % Inhibition of Control Specific Binding: 14.8% and 19.2%
[5]; 1.0E-08 M
  % Inhibition of Control Specific Binding: 1.2% and -2.9%
[5]; 1.0E-09 M
  % Inhibition of Control Specific Binding: -6.1% and -3.7%
[5]; 2.0E-06 M
  % Inhibition of Control Specific Binding: 65.5% and 63.4%
In vivo [6]; percentage CSF to plasma ratio
  Kp: 0
In vivo [6]; percentage brain to plasma ratio
  Kp: 0
In vivo [7]; 15.9 μmole/kg, Concentration, subcutaneous 15.9 μmole/kg, time 0.03 h, individual animals
  concentration at 0.03 h: 1340 nM
In vivo [7]; 15.9 μmole/kg, Concentration, subcutaneous 15.9 μmole/kg, time 0.5 h, individual animals
  concentration at 0.5 h: 4.74 µM
In vivo [7]; 15.9 μmole/kg, Concentration, subcutaneous 15.9 μmole/kg, time 0.75 h, individual animals
  concentration at 0.75 h: 4.8 µM
In vivo [7]; 15.9 μmole/kg, Concentration, subcutaneous 15.9 μmole/kg, time 1 h, individual animals
  concentration at 1 h: 6.68 µM
In vivo [7]; 15.9 μmole/kg, Concentration, subcutaneous 15.9 μmole/kg, time 2 h, individual animals
  concentration at 2 h: 7.09 µM
In vivo [7]; 15.9 μmole/kg, Concentration, subcutaneous 15.9 μmole/kg, time 4 h, individual animals
  concentration at 4 h: 2750 nM
In vivo [7]; 15.9 μmole/kg, Concentration, subcutaneous 15.9 μmole/kg, time 8 h, individual animals
  concentration at 8 h: 196 nM
In vivo [7]; 15.9 μmole/kg, Concentration, subcutaneous 15.9 μmole/kg, time 24 h, individual animals
  concentration at 24 h: 18.7 nM
In vivo [7]; 16 umol/kg
  AUC(0-inf): 25.8 ± 3.09 µM·h
  CL/F: 10.3 mL/min/kg
  Vd/F: 4.22 ± 0.86 L/kg
  half-life: 281 ± 31.2 min
[8]; rat, single SC dose 16 µmol/kg
  k: 0.15 ± 0.02 h⁻¹
[8]; time 0.03 h
  Concentration: 1980.92 nM and 1419.06 nM and 1694.61 nM
[8]; time 0.5 h
  Concentration: 6994.54 nM and 3873.66 nM and 4264.25 nM
[8]; time 0.75 h
  Concentration: 6976.39 nM and 5017.1 nM and 7890.95 nM
[8]; time 1 h
  Concentration: 6606.43 nM and 5966.57 nM and 8438.91 nM
[8]; time 2 h
  Concentration: 5069.67 nM and 5721.19 nM and 8480.16 nM
[8]; time 4 h
  Concentration: 2353.83 nM and 3068.56 nM and 2535.48 nM
[8]; time 6 h
  Concentration: 732.498 nM and 360.453 nM and 640.073 nM and 668.521 nM
[8]; time 8 h
  Concentration: 132.069 nM and 207.97 nM and 223.861 nM
[8]; time 12 h
  Concentration: 78.9419 nM and 35.0657 nM and 62.9969 nM and 75.6407 nM
[8]; time 24 h
  Concentration: 12.92 nM and 13.41 nM and 14.17 nM

## NC(Cc1cc(I)c(Oc2cc(I)c(O)c(I)c2)c(I)c1)C(=O)O (centres unmarked) [Thyroxine]
holo-RBP-TTR interaction
  %holo RBP binding to TTR: 7.1% and 6.9% and 6%

## NC(N)=O [Urea]
holo-RBP-TTR interaction
  %holo RBP binding to TTR: 98.7% and 127% and 74.3%
